Experimental data taken from patent publication US20060116316A1, “Heterocyclic inhibitors of IRES-mediated translation and methods of use thereof” (priority 2004, published 2006).
Where a SMILES comes first, the peptide text is derived from it.

Each molecule was assayed on HCV IRES (assay: HCV IRES reporter FACS assay (GFP expression ratio, intein-expressed cyclic peptides)). Conditions: 3-mers from mutant intein scaffold, junction Val-His-Asn-X1X2X3-Trp-Ile-Ser; ratio at least 1.20 = significant activity.
Type: cell-based, Hepatitis C virus
Description: [The source words this procedure for another variant and says it was used here with some conditions changed.] Cells producing libraries of cyclic 3-mers and 4-mers (i.e., libraries of cyclic peptides that contain 3 or 4 amino acid residues) were constructed using methods identical to those of Kinsella et al (J Biol. Chem. 2002 277:37512-8), except different oligonucleotides were used for library construction. Clones from this library were screened in an assay shown in FIG. 2 to identify IRES-inhibitory compounds.
In summary, separate cyclic 3-mer and cyclic 4-mer libraries were constructed such that each peptide of the library contained a fixed Ser, Thr or Cys residue (at position 1) and the remaining residues were randomized. For library construction, degenerate oligonucleotides of sequence 5′-[…](AGC/ACC/TGC)(NNK)2 or 3 TGCATCAGCGGCGACAG-3′ were annealed to the primer 5′-[…]-3′ and extended using the Expand PCR kit (Roche Molecular Biochemicals). The double-stranded DNA insert was digested and inserted into the BclI/DrdI sites of DnaBO-e-BFP (ACUC). The plasmid libraries were electroporated into ElectroMAX DH 10B competent E. coli (Invitrogen) for amplification on LB+amp agar medium. […] Expression of the intein is detected by detecting BFP expression. Expression of the intein (and the cyclic peptide produced by the intein) is suppressible by addition of exogenous doxycycline. The amino acid sequence of the junctions of the intein scaffold used in making the 3-mer library is Val-His-Asn-X3 or 4-Cys-Ile-Ser, where X3 or 4 are three or four contiguous amino acids.
Infectious retroviral particles were produced by transfection of 15 µg of each library (as described in Swift et al, (1999). Current Protocols in Immunology Vol. 10.17C, pp. 1-17, Freeman, N.Y.) into approximately 5×10^6 Phoenix-A packaging cells. Each resulting library of retroviral particles was then used to infect 5×10^6 BJAB-S3A11 reporter cells and a FACS based selection was carried out to isolate cells with reduced HCV-IRES reporter output.
In detail, referring to FIG. 2, the cells used in the assay contained an IRES-dependent reporter system. […]. Also present in the cells is a control reporter system for assaying the activity of 5′ cap-dependent translation (the mechanism by which most cellular proteins are normally translated). The control reporter system contains a CMV promoter that drives the transcription of an RNA containing 5′ cap-dependent UTR, operably linked to an RNA encoding RFP (red fluorescent protein). Translation of RFP is dependent on the activity of the 5′ cap-dependent UTR.
Cells containing both the cyclic compound library and the reporter systems described above were first screened for survival upon exposure to diptheria toxin, and then screened by FACS to identify cells that had reduced GFP expression, as compared to RFP expression. Cells were expanded and replica-plated and grown in the presence or absence of dox (100 ng/ml) for four days. Plates were stimulated with IL-4 and GFP expression (relative to RFP) was monitored by flow cytometry. The IRES-inhibitory activity of a peptide is evaluated by calculating the ratio of the geometric mean of GFP expression of peptide positive cells (“peptide pos+” cells i.e., cells not contacted with dox) to the geometric mean of GFP expression of peptide negative cells (“peptide pos−” cells i.e., cells contacted with dox).
Cyclic peptides assigned higher scores have a greater IRES-inhibitory activity.
The number shown in parentheses after each of the amino acid sequences is the IRES-inhibitory activity ratio, as discussed above.

In order of rising “IRES-inhibitory activity ratio (geometric mean GFP expression, peptide positive cells / peptide negative cells)” value:
1. C[C@@H]1NC(=O)[C@H](CO)NC(=O)[C@H](CCCCN)NC1=O [cyclo-SAK, cyclo[SAK]] (cyclo(Ala-Lys-Ser))  1.3
2. C[C@@H]1NC(=O)[C@H](CO)NC(=O)[C@H](CCC(N)=O)NC1=O [cyclo-SAQ, cyclo[SAQ]] (cyclo(Ala-Gln-Ser))  1.4
3. O=C(O)C[C@@H]1NC(=O)[C@H](CO)NC(=O)[C@H](Cc2c[nH]c3ccccc23)NC1=O [cyclo-SDW, cyclo[SDW]] (cyclo(Asp-Trp-Ser))  1.85
4. C[C@@H]1NC(=O)[C@H](CO)NC(=O)[C@H](Cc2ccccc2)NC1=O [cyclo-SAF, cyclo[SAF]] (cyclo(Ala-Phe-Ser))  1.88
5. O=C1N[C@@H](Cc2c[nH]c3ccccc23)C(=O)N[C@@H](CO)C(=O)N[C@H]1CO [cyclo-SSW, cyclo[SSW]] (cyclo(Ser-Ser-Trp))  2.05

Same assay, conditions: 3-mers from mutant intein scaffold, junction Val-His-Tyr-X1X2X3-Cys-Ile-Ser; ratio at least 1.20 = significant activity

In order of rising “IRES-inhibitory activity ratio (geometric mean GFP expression, peptide positive cells / peptide negative cells)” value:
1. CC(C)[C@@H]1NC(=O)[C@H](CC(=O)O)NC(=O)[C@H](CO)NC1=O [cyclo-SDV, cyclo[SDV]] (cyclo(Asp-Val-Ser))  1.23
2. CSCC[C@@H]1NC(=O)[C@H](C)NC(=O)[C@H](CO)NC1=O [cyclo-SAM, cyclo[SAM]] (cyclo(Ala-Met-Ser))  1.36
3. CC(C)[C@@H]1NC(=O)[C@H](Cc2cnc[nH]2)NC(=O)[C@H](CO)NC1=O [cyclo-SHV, cyclo[SHV]] (cyclo(His-Val-Ser))  1.91
4. CC(C)[C@@H]1NC(=O)[C@H](CCC(=O)O)NC(=O)[C@H](CO)NC1=O [cyclo-SEV, cyclo[SEV]] (cyclo(Glu-Val-Ser))  1.93
5. C[C@@H]1NC(=O)[C@H](CO)NC(=O)[C@H](Cc2ccc(O)cc2)NC1=O [cyclo-SAY, cyclo[SAY]] (cyclo(Ala-Tyr-Ser))  1.95
6. CC(C)[C@@H]1NC(=O)[C@H](C)NC(=O)[C@H]([C@@H](C)O)NC1=O [cyclo-TAV, cyclo[TAV]] (cyclo(Ala-Val-Thr))  2.00
7. CC(C)[C@@H]1NC(=O)[C@H]([C@@H](C)O)NC(=O)[C@H](CO)NC1=O [cyclo-STV, cyclo[STV]] (cyclo(Ser-Thr-Val))  2.24
8. CC(C)[C@@H]1NC(=O)[C@H](C)NC(=O)[C@H](CO)NC1=O [cyclo-SAV, cyclo[SAV]] (cyclo(Ala-Val-Ser))  2.65

Same assay, conditions: 4-mers from mutant intein scaffold, junction Val-His-Asn-X1X2X3X4-Cys-Ser; ratio at least 1.20 = significant activity

In order of rising “IRES-inhibitory activity ratio (geometric mean GFP expression, peptide positive cells / peptide negative cells)” value:
1. CSCC[C@@H]1NC(=O)[C@H](Cc2ccccc2)NC(=O)[C@H](Cc2c[nH]c3ccccc23)NC(=O)[C@H](CO)NC1=O [cyclo-SWFM, cyclo[SWFM]] (cyclo(FMSW))  1.31
2. C[C@@H]1NC(=O)[C@H](Cc2ccccc2)NC(=O)[C@H](Cc2c[nH]c3ccccc23)NC(=O)[C@H](CO)NC1=O [cyclo-SWFA, cyclo[SWFA]] (cyclo(ASWF))  1.31
3. N=C(N)NCCC[C@@H]1NC(=O)[C@H](Cc2c[nH]c3ccccc23)NC(=O)[C@H](Cc2ccccc2)NC(=O)[C@H](CO)NC1=O [cyclo-SFWR, cyclo[SFWR]] (cyclo(FWRS))  1.49

Same assay, conditions: BJAB-S3A11 reporter cells, +/- dox 100 ng/ml four days; library intein junction Val-His-Asn-X1X2X3-Cys-Ile-Ser; ratio at least 1.20 = significant activity

In order of rising “IRES-inhibitory activity ratio (geometric mean GFP expression, peptide positive cells / peptide negative cells)” value:
1. C[C@@H]1NC(=O)[C@H](CO)NC(=O)[C@H](Cc2c[nH]c3ccccc23)NC1=O [cyclo-SAW, cyclo[SAW]] (cyclo(Ala-Trp-Ser))  1.21
2. CC(C)C[C@@H]1NC(=O)[C@H](CO)NC(=O)[C@H](Cc2c[nH]c3ccccc23)NC1=O [cyclo-SLW, cyclo[SLW]] (cyclo(Leu-Trp-Ser))  1.27
3. CSCC[C@@H]1NC(=O)[C@H](CO)NC(=O)[C@H](Cc2c[nH]c3ccccc23)NC1=O [cyclo-SMW, cyclo[SMW]] (cyclo(Met-Trp-Ser))  1.28
4. CSCC[C@@H]1NC(=O)[C@H](CS)NC(=O)[C@H](Cc2c[nH]c3ccccc23)NC1=O [cyclo-CMW, cyclo[CMW]] (cyclo(Cys-Met-Trp))  1.29
5. CCC(C)[C@@H]1NC(=O)[C@H](CO)NC(=O)[C@H](Cc2c[nH]c3ccccc23)NC1=O (stereo partly drawn) [cyclo-SIW, cyclo[SIW]]  1.36
6. O=C1N[C@@H](Cc2c[nH]c3ccccc23)C(=O)N[C@@H](Cc2ccc(O)cc2)C(=O)N[C@H]1CO [cyclo-SWY, cyclo[SWY]] (cyclo(Ser-Trp-Tyr))  1.38
7. CC(C)[C@@H]1NC(=O)[C@H](Cc2ccc(O)cc2)NC(=O)[C@H](CO)NC1=O [cyclo-SYV, cyclo[SYV]] (cyclo(Ser-Tyr-Val))  1.4
8. O=C1N[C@@H](Cc2c[nH]c3ccccc23)C(=O)N[C@@H](Cc2c[nH]c3ccccc23)C(=O)N[C@H]1CS [cyclo-CWW, cyclo[CWW]] (cyclo(Cys-Trp-Trp))  1.41
9. C[C@@H](O)[C@@H]1NC(=O)[C@H](Cc2c[nH]c3ccccc23)NC(=O)[C@H](CS)NC1=O [cyclo-TCW, cyclo[TCW]] (cyclo(Cys-Trp-Thr))  1.48
10. C[C@@H](O)[C@@H]1NC(=O)[C@H](Cc2c[nH]c3ccccc23)NC(=O)[C@H](Cc2cnc[nH]2)NC1=O [cyclo-THW, cyclo[THW]] (cyclo(His-Trp-Thr))  1.49
11. C[C@@H](O)[C@@H]1NC(=O)[C@H](Cc2c[nH]c3ccccc23)NC(=O)[C@H](CC(N)=O)NC1=O [cyclo-TQW, cyclo[TQW]]  1.7
12. C[C@@H](O)[C@@H]1NC(=O)[C@H](Cc2c[nH]c3ccccc23)NC(=O)[C@H](Cc2ccccc2)NC1=O [cyclo-TFW, cyclo[TFW]] (cyclo(Phe-Trp-Thr))  1.75
13. CC(C)[C@@H]1NC(=O)[C@H](Cc2c[nH]c3ccccc23)NC(=O)[C@H](CO)NC1=O [cyclo-SWV, cyclo[SWV]] (cyclo(Ser-Trp-Val))  1.83
14. C[C@@H](O)[C@@H]1NC(=O)[C@H](Cc2c[nH]c3ccccc23)NC(=O)[C@H](Cc2ccc(O)cc2)NC1=O [cyclo-TYW, cyclo[TYW]] (cyclo(Thr-Tyr-Trp))  2.23
